# Measurements reported in ChEMBL document CHEMBL5385936, “Design, synthesis, α-amylase and glucose diffusion inhibition, and molecular docking studies of new indenopyrazolones bearing benzothiazole derivatives” (Bioorg Med Chem Lett, 2024).
# Assays:
# [1] = In vitro antidiabetic activity measured by appearance of glucose in external solution using dialysis bag and D-glucose incubated for 1 to 27 hrs by 3,5-dinitrosalicylic acid based glucose diffusion inhibition assay; type: functional; conditions: time 1-27 hrs
# [2] = Inhibition of Aspergillus oryzae alpha-amylase in presence of 1% starch incubated for 10 mins
Compound,Activity [1] [µg/mL],IC50 [2] [µg/mL]
O=C1c2ccccc2-c2c1c(-c1ccc(Br)cc1)nn2-c1nc2ccc(F)cc2s1,12.7,196.85
COc1ccc(-c2nn(-c3nc4ccc(F)cc4s3)c3c2C(=O)c2ccccc2-3)cc1,4.26,104.74
Cc1cccc2sc(-n3nc(-c4cccc(Cl)c4)c4c3-c3ccccc3C4=O)nc12,2.25,171.2
O=C1c2ccccc2-c2c1c(-c1ccc(F)cc1)nn2-c1nc2ccc(F)cc2s1,11.5,144.106
Cc1cccc(-c2nn(-c3nc4ccc(F)cc4s3)c3c2C(=O)c2ccccc2-3)c1,13.5,95.41
Cc1cccc2sc(-n3nc(-c4ccccc4)c4c3-c3ccccc3C4=O)nc12,6.68,167.48
COc1ccc(-c2nn(-c3nc4c(C)cccc4s3)c3c2C(=O)c2ccccc2-3)cc1,12.7,161.92
COc1cccc(-c2nn(-c3nc4c(C)cccc4s3)c3c2C(=O)c2ccccc2-3)c1,10.8,200.95
O=C1c2ccccc2-c2c1c(-c1ccccc1)nn2-c1nc2ccc(F)cc2s1,2.63,98.42
Cc1cccc2sc(-n3nc(-c4ccc(Cl)cc4)c4c3-c3ccccc3C4=O)nc12,9.5,92.99
C[C@H]1O[C@H](O[C@H]2[C@H](O)[C@@H](O)[C@@H](O[C@H]3[C@H](O)[C@@H](O)C(O)O[C@@H]3CO)O[C@@H]2CO)[C@H](O)[C@@H](O)[C@@H]1N[C@H]1C=C(CO)[C@@H](O)[C@H](O)[C@H]1O (some centres not stated) [ACARBOSE],2.76,103.6
Cc1ccc(-c2nn(-c3nc4c(C)cccc4s3)c3c2C(=O)c2ccccc2-3)cc1,7.25,165.59
Cc1cccc2sc(-n3nc(-c4cccc(Br)c4)c4c3-c3ccccc3C4=O)nc12,6.29,183.43
O=C1c2ccccc2-c2c1c(-c1cccc(Br)c1)nn2-c1nc2ccc(F)cc2s1,11.9,192.95
COc1cccc(-c2nn(-c3nc4ccc(F)cc4s3)c3c2C(=O)c2ccccc2-3)c1,10.9,162.5
Cc1ccc(-c2nn(-c3nc4ccc(F)cc4s3)c3c2C(=O)c2ccccc2-3)cc1,6.8,135.14
O=C1c2ccccc2-c2c1c(-c1cccc(Cl)c1)nn2-c1nc2ccc(F)cc2s1,18,190.98
O=C1c2ccccc2-c2c1c(-c1ccc(Cl)cc1)nn2-c1nc2ccc(F)cc2s1,17.6,189.69
Cc1cccc2sc(-n3nc(-c4ccc(Br)cc4)c4c3-c3ccccc3C4=O)nc12,17.2,132.41
Cc1cccc2sc(-n3nc(-c4ccc(F)cc4)c4c3-c3ccccc3C4=O)nc12,13.2,159.95
Cc1cccc(-c2nn(-c3nc4c(C)cccc4s3)c3c2C(=O)c2ccccc2-3)c1,8.25,198.33
